Results taken from patent publication US20250388542A1, “ANALOGUES OF PENTAMIDINE AND USES THEREFOR” (Auransa Inc., priority 2018, published 2025).

Key:
Type in all cases: cell-based
Hep3B-luc = assay: CellTiter-Glo cell viability, liver cell lines, 8 days; details: full growth media
Method: (§1) The objective of this study is to investigate the effect of Compound 1 on cell viability of various types of liver cancer. Ten (10) different liver cancer cell lines were employed in the study. Each liver cell line shown in Table 4 was treated with Compound 1, pentamidine, as reference control, a standard of care (cisplatin) and culture medium contains 0.2% [v/v] DMSO vehicle control and IC50 values were obtained as described above. The raw data values from the CellTiter-Glo™ cell viability assay expressed in relative luminescence units were normalized to the vehicle for each individual plate, and any reduction in luminescence indicated a decrease in viability (%). The data was analyzed in GraphPad PRISM using a non-linear sigmoidal plot with variable slope (asymmetric four-point linear regression), and an IC50 value for each compound was generated. The experiment tested pentamidine, compound 1, and standard-of-care control Cisplatin in full growth media for 8 days. Cells were initially treated with the test compounds on Day 0, and the cells were then replenished with fresh compound dilutions on Day 3. Pentamidine, Compound 1, and cisplatin were tested at 9 concentration points; 100, 33.33, 11.11, 3.70, 1.23, 0.41, 0.14, 0.05, and 0.02 μM (final DMSO concentration=0.5%). In particular, the IC50 values of pentamidine and Compound 1 were 0.8 and 0.6 μM in Hep3B-luc, respectively.
The experiment tested pentamidine, Compound 1, and standard of care control, cisplatin, in full growth media for 8 days. Hep-3b cells were initially treated with the test compounds on Day 0, and the cells were then replenished with fresh compound dilutions on Day 3. […] The raw data values from the CellTiter-Glo™ cell viability assay expressed in relative luminescence units were normalized to the vehicle for each individual plate, and any reduction in luminescence indicated a decrease in viability (%). The data was analyzed in GraphPad PRISM using a non-linear sigmoidal plot with variable slope (asymmetric four-point linear regression), and an IC50 value for each compound was generated. […]

HCCLM3 = assay: as above; details: Homo sapiens, 192 h; HCCLM3, 8 days
Method: as §1

HEP3B2.7-1 = assay: as above; details: HEP3B2.7-1, Table 4
Method: as §1

HUH1 = assay: as above; details: Homo sapiens, HuH-1, 192 h; HUH1, 8 days
Method: as §1

HUH7 = assay: as above; details: Homo sapiens, Huh-7, 192 h; HUH7, 8 days
Method: as §1

Hep3B = assay: as above; details: Homo sapiens, 192 h
Method: as §1

HepG2 = assay: as above; details: Homo sapiens, 192 h; HepG2, 8 days
Method: as §1

MHCC97H = assay: as above; details: Homo sapiens, 192 h
Method: as §1

SK-HEP-1 = assay: as above; details: Homo sapiens
Method: as §1

DU4475 = assay: CellTiter-Glo cytotoxicity, cancer cell line panel / breast cancer study; details: DU4475, Breast carcinoma
Method: (§2) The objective of this study is to investigate potential cell killing effect of Compounds 1-15 on 3 cancer cell lines. 50% inhibition concentration (IC50) was determined for these compounds in various cancer cell lines using CellTiter-Glo™ luminescent cell viability assay at different compound concentrations. Each cell line (e.g., NCI-H209; NCI-H69; and SW1271) was treated with Compounds 1-15 and culture medium contains 0.2% [v/v] DMSO vehicle control. All the cells were cultured in the media supplemented with 10-20% fetal bovine serum at 37° C., 5% CO2 and 95% humidity.
(§3) The objective of this study is to investigate the effect of Compound 1 on cytotoxicity against 61 different types of cancer cell lines. IC50 were values were obtained using CellTiter-Glo™ as described above. Each cell line shown in Table 3 was treated with Compound 1, a standard chemotherapy drug, cisplatin, as reference control and culture medium contains 0.2% [v/v] DMSO vehicle control. All cancer cell lines were cultured in media supplemented with 10-20% fetal bovine serum at 37° C., 5% CO2 and 95% humidity.
(§4) The objective of this study is to investigate the effect of Compound 1 on cell viability of various types of breast cancer. Four different breast cancer cell lines were employed in the study. Each cell line shown in Table 5 was treated with Compound 1 and standard of care (cisplatin) and culture medium contains 0.2% [v/v] DMSO vehicle control and IC50 values were obtained as described above. The raw data values from the CellTiter-Glo™ cell viability assay expressed in relative luminescence units were normalized to the vehicle for each individual plate, and any reduction in luminescence indicated a decrease in viability (%). The data was analyzed in GraphPad PRISM using a non-linear sigmoidal plot with variable slope (asymmetric four-point linear regression), and an IC50 value for each compound was generated. The experiment tested pentamidine, compound 1, and standard-of-care control Cisplatin in full growth media for 8 days. Cells were initially treated with the test compounds on Day 0, and the cells were then replenished with fresh compound dilutions on Day 3. Pentamidine, Compound 1, and cisplatin were tested at 9 concentration points; 100, 33.33, 11.11, 3.70, 1.23, 0.41, 0.14, 0.05, and 0.02 μM (final DMSO concentration=0.5%).

HCC1954 = assay: as above; details: HCC1954, Ductal breast carcinoma
Method: as §2, §3, §4

ZR-75-1 = assay: as above; details: ZR-75-1, Invasive ductal carcinoma
Method: as §2, §3, §4

IC50 (Hep3B-luc; Hep 3B-Luc, 192 h)	IC50 (HCCLM3)	IC50 (HEP3B2.7-1)	IC50 (HUH1)	IC50 (HUH7)	IC50 (Hep3B)	IC50 (HepG2)	IC50 (SK-HEP-1; SK-HEP1, SK-HEP-1, first listing in Table 4)	IC50 (SK-HEP-1; SK-HEP1, SK-HEP-1, second listing in Table 4)	Compound	IC50 (MHCC97H)	IC50 (DU4475)	IC50 (HCC1954)	IC50 (ZR-75-1)	IC50 (Hep3B-luc)
800 nM	6900 nM	280 nM	1790 nM	680 nM	160 nM	290 nM	1450 nM	720 nM	N=C(N)c1ccc(OCCCCCOc2ccc(C(=N)N)cc2)cc1 [Pentamidine, 1,5-bis(4-amidinophenoxy)pentane]	4260 nM	–	–	–	–
–	–	–	–	–	–	–	–	–	N.N.[Cl][Pt][Cl] [Cisplatin, cisplatin, reference compound]	–	600 nM	770 nM	1020 nM	5100 nM
